Measured values: patent publication US20020137929A1, “1 - (3-heterocyclylphenyl) isothiourea, -isourea, -guanidine and -amidine herbicidal agents” (Intellectual Property Department, BASF Aktiengesellschaft, priority 1998, published 2002)

Key:
[1] = system: GLXMAW (Soybean, Williams); experiment: Preemergence herbicidal evaluation; type: in vivo, Glycine max, (L.) Merr. cv Williams; settings: preemergence, rated 4-5 weeks after treatment, 0-9 scale
Outline: (§1)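 Seeds were mixed with potting soil and planted on about one inch of soil, then sprayed with test compound in aqueous acetone at about 0.0156 to 0.500 kg per hectare. Plants grew under standard greenhouse care and were visually rated 0-9 against untreated controls 4-5 weeks post-treatment.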

ZEAMX (Corn, Field) = experiment: Preemergence herbicidal evaluation; type: in vivo, Zea mays; settings: preemergence, rated 4-5 weeks after treatment, 0-9 scale
Outline: as §1

ECHCG (Barnyardgrass) = experiment: Postemergence herbicidal evaluation; type: in vivo, Echinochloa crus-galli; settings: postemergence
Outline: (§2)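 Seedlings grown about two weeks were sprayed at 40 psi with compound dispersed in 50/50 acetone/water plus 0.5% TWEEN 20, at about 0.0156 to 0.500 kg/ha. Plants were kept in the greenhouse and scored 4–5 weeks later on a 0–9 visual scale against untreated controls.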

CYPSE (Flatsedge) = experiment: Postemergence weed control under flooded paddy conditions; type: in vivo, Cyperus serotinus; settings: postemergence weeds, rated 3 to 4 weeks after treatment
Outline: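 With weeds 3 to 5 cm tall and rice at the 1.5 to 2.5 leaf stage, containers were flooded and water held 1.5 to 3 cm above soil. Compounds in 50/50 v/v aqueous/acetone went into the flood water at about 0.0313 to 0.500 kg/ha a.i. Effects were visually rated 0–9 against controls after three to four weeks in the greenhouse.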

ORYSAT (Rice, Tebonnet) [2] = experiment: Postemergence herbicidal evaluation; type: in vivo, Oryza sativa, (L.) Tebonnet; settings: postemergence
Outline: as §2

GALAP (Galium) = experiment: Preemergence herbicidal evaluation; type: in vivo, Galium aparine; settings: preemergence, rated 4-5 weeks after treatment, 0-9 scale
Outline: as §1

SETVI (Foxtail, Green) = experiment: Preemergence herbicidal evaluation; type: in vivo, Setaria viridis; settings: preemergence, rated 4-5 weeks after treatment, 0-9 scale
Outline: as §1

[3] = system: TRZAWR (Wheat, Winter, cv Riband); experiment: Preemergence herbicidal evaluation; type: in vivo, Triticum aestivum; settings: preemergence, rated 4-5 weeks after treatment, 0-9 scale
Outline: as §1

CASOB (Sicklepod) = experiment: Postemergence herbicidal evaluation; type: in vivo, Cassia obtusifolia; settings: postemergence
Outline: as §2

ORYSAT (Rice, Tebonnet) [4] = experiment: Preemergence herbicidal evaluation; type: in vivo, Oryza sativa, (L.) Tebonnet; settings: preemergence, rated 4-5 weeks after treatment, 0-9 scale
Outline: as §1

MOOVA (Monochoria) = experiment: Preemergence weed control under flooded paddy conditions; type: in vivo, Monochoria vaginalis; settings: rated 3-4 weeks after treatment
Outline: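 Visual injury scored 0-9 against control three to four weeks post-treatment, greenhouse-grown. Application: acetone/water (50/50) solutions dosed directly into flood water (1.5-3 cm over silt loam, planted top 0.5 cm), roughly 0.0313 to 0.500 kg/ha active ingredient.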

[5] = system: CHEAL (Lambsquarters, Common); experiment: Postemergence herbicidal evaluation; type: in vivo, Chenopodium album; settings: postemergence
Outline: as §2

CYPIR (Rice Flatsedge) = experiment: Preemergence weed control under flooded paddy conditions; type: in vivo, Cyperus iria; settings: rated 3-4 weeks after treatment
Outline: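 Seeds or propagules sown in silt loam kept flooded 1.5-3 cm; compounds in 50/50 acetone/water pipetted into flood water at about 0.0313 to 0.500 kg/ha. Greenhouse; visual 0-9 rating versus untreated control 3-4 weeks after treatment.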

Compound C=CCN1C(=O)C(CC(=O)NS(C)(=O)=O)SC1=Nc1cc(-n2c(=O)cc(C(F)(F)F)n(C)c2=O)c(F)cc1Cl (centres unmarked) [Compound 96, 3-Allyl-2-{{2-chloro-5-[3,6-dihydro-3-methyl-2,6-dioxo-4-(trifluoromethyl)-1(2H)-pryimidinyl]-4-fluorophenyl}imino}-N-(methylsulfonyl)-4-oxo-5-thiazolidineacetamide] has a GLXMAW rating ([1]; 0.0313 kg/ha) of 0.0, a GLXMAW rating ([1]; 0.0625 kg/ha) of 0.0 and a GLXMAW rating ([1]; 0.1250 kg/ha) of 0.0. The GLXMAW rating ([1]; 0.2500 kg/ha) was 3.0, the GLXMAW rating ([1]; 0.5000 kg/ha) was 4.0 and the ZEAMX rating (ZEAMX (Corn, Field); 0.0313 kg/ha) was 0.0. For the same compound, the ZEAMX rating (ZEAMX (Corn, Field); 0.0625 kg/ha) was 1.0, the ZEAMX rating (ZEAMX (Corn, Field); 0.1250 kg/ha) was 0.0 and the ZEAMX rating (ZEAMX (Corn, Field); 0.2500 kg/ha) was 2.0. The ZEAMX rating (ZEAMX (Corn, Field); 0.5000 kg/ha) was 4.0, the ECHCG herbicidal rating (ECHCG (Barnyardgrass); rate 0.0156 kg/ha) was 0.0 and the ECHCG herbicidal rating (ECHCG (Barnyardgrass); rate 0.0313 kg/ha) was 0.0. For the same compound, the ECHCG herbicidal rating (ECHCG (Barnyardgrass); rate 0.0625 kg/ha) was 2.0, the ECHCG herbicidal rating (ECHCG (Barnyardgrass); rate 0.1250 kg/ha) was 2.0 and the “Herbicidal rating CYPSE” value (CYPSE (Flatsedge); Rate 0.0313 kg/ha) was 0.0. The “Herbicidal rating CYPSE” value (CYPSE (Flatsedge); Rate 0.0625 kg/ha) was 0.0, the “Herbicidal rating CYPSE” value (CYPSE (Flatsedge); Rate 0.1250 kg/ha) was 0.0 and the “Herbicidal rating CYPSE” value (CYPSE (Flatsedge); Rate 0.2500 kg/ha) was 0.0. The ORYSAT herbicidal rating (ORYSAT (Rice, Tebonnet) [2]; rate 0.0156 kg/ha) was 2.0, the ORYSAT herbicidal rating (ORYSAT (Rice, Tebonnet) [2]; rate 0.0313 kg/ha) was 2.0 and the ORYSAT herbicidal rating (ORYSAT (Rice, Tebonnet) [2]; rate 0.0625 kg/ha) was 1.5. The ORYSAT herbicidal rating (ORYSAT (Rice, Tebonnet) [2]; rate 0.1250 kg/ha) was 2.0, the GALAP rating (GALAP (Galium); 0.0313 kg/ha) was 0.0 and the GALAP rating (GALAP (Galium); 0.0625 kg/ha) was 2.0. The GALAP rating (GALAP (Galium); 0.1250 kg/ha) was 2.0, the GALAP rating (GALAP (Galium); 0.2500 kg/ha) was 6.0 and the GALAP rating (GALAP (Galium); 0.5000 kg/ha) was 7.0. The SETVI rating (SETVI (Foxtail, Green); 0.0313 kg/ha) was 1.0, the SETVI rating (SETVI (Foxtail, Green); 0.0625 kg/ha) was 1.0 and the SETVI rating (SETVI (Foxtail, Green); 0.1250 kg/ha) was 0.0. It also gave an SETVI rating (SETVI (Foxtail, Green); 0.2500 kg/ha) of 1.0, an SETVI rating (SETVI (Foxtail, Green); 0.5000 kg/ha) of 4.0 and a TRZAWR rating ([3]; 0.0313 kg/ha) of 0.0. It also gave a TRZAWR rating ([3]; 0.0625 kg/ha) of 0.0, a TRZAWR rating ([3]; 0.1250 kg/ha) of 0.0 and a TRZAWR rating ([3]; 0.2500 kg/ha) of 1.0. The TRZAWR rating ([3]; 0.5000 kg/ha) was 1.0, the CASOB herbicidal rating (CASOB (Sicklepod); rate 0.0156 kg/ha) was 0.0 and the CASOB herbicidal rating (CASOB (Sicklepod); rate 0.0313 kg/ha) was 0.0. It also gave a CASOB herbicidal rating (CASOB (Sicklepod); rate 0.0625 kg/ha) of 1.0, a CASOB herbicidal rating (CASOB (Sicklepod); rate 0.1250 kg/ha) of 0.0 and an ORYSAT rating (ORYSAT (Rice, Tebonnet) [4]; 0.0313 kg/ha) of 0.0. The ORYSAT rating (ORYSAT (Rice, Tebonnet) [4]; 0.0625 kg/ha) was 0.0, the ORYSAT rating (ORYSAT (Rice, Tebonnet) [4]; 0.1250 kg/ha) was 0.0 and the ORYSAT rating (ORYSAT (Rice, Tebonnet) [4]; 0.2500 kg/ha) was 1.0. For the same compound, the ORYSAT rating (ORYSAT (Rice, Tebonnet) [4]; 0.5000 kg/ha) was 2.0, the “MOOVA herbicidal effect rating” value (MOOVA (Monochoria); 0.0313 kg/ha) was 2.0 and the “MOOVA herbicidal effect rating” value (MOOVA (Monochoria); 0.0625 kg/ha) was 2.0. For the same compound, the “MOOVA herbicidal effect rating” value (MOOVA (Monochoria); 0.1250 kg/ha) was 3.0, the “MOOVA herbicidal effect rating” value (MOOVA (Monochoria); 0.2500 kg/ha) was 3.0 and the CHEAL herbicidal rating ([5]; rate 0.0156 kg/ha) was 2.0. The CHEAL herbicidal rating ([5]; rate 0.0313 kg/ha) was 2.0, the “CYPIR herbicidal effect rating” value (CYPIR (Rice Flatsedge); 0.0313 kg/ha) was 0.0 and the “CYPIR herbicidal effect rating” value (CYPIR (Rice Flatsedge); 0.0625 kg/ha) was 5.0. For the same compound, the “CYPIR herbicidal effect rating” value (CYPIR (Rice Flatsedge); 0.1250 kg/ha) was 6.0 and the “CYPIR herbicidal effect rating” value (CYPIR (Rice Flatsedge); 0.2500 kg/ha) was 6.0.
